pIC50: −log10 of the molar value. Values joined by “and” are separate entries in the source; they are usually repeats but may differ in a detail not shown here. Identical values can stand only once. “Also recorded” adds a separate entry of the source. Counter-ions that a name gives are not always drawn.
Assays:
A549 cells = tested on: A549 cells; parameters: method as in numbers not shown in text; conditions: literature comparison, ref numbers not shown in text; cited from earlier work
[1] = Octanol/water partition experiments; format: physicochemical; conditions: stirred 24 h, absorbance at 562 nm, triplicate
[2] = Dynamic light scattering (DLS) nanoparticle size; format: physicochemical; conditions: 10 μM solutions of nanoGUMBOS
Procedure: (§1) The series of RB-based nanoGUMBOS was synthesized by a simple reprecipitation method to form nanoparticles from a 10 mM RB-based GUMBOS stock solution in MeOH or DMSO. Briefly, a small aliquot of a MeOH/DMSO solution of each RB-based GUMBOS was rapidly introduced into a large volume of an aqueous cell medium (Dulbecco’s modified Eagle’s medium (DMEM), containing 10% fetal bovine serum) or water under ultrasonication. In this condition, a supersaturation of the hydrophobic RB-based GUMBOS is achieved in the aqueous system, leading to the precipitation of the RB-based GUMBOS into small particles. After that, the solution was placed on the bench and allowed to rest for a period of 15 min to allow the nucleation of the nanoparticles.
(§2) Once the incubation period concluded, DLS and S-TEM instruments were used to characterize the nanoGUMBOS. Dynamic light scattering was performed using a Malvern Zetasizer. […] Each compound was scanned at 25 °C for 10 s each scan, and the system automatically adjusted the scans needed per run. S-TEM was employed via the use of a JEOL-SEM 7600F instrument, with a vacuum pressure of 1.9E^–4 Pa, electron beam at 30,000 V, and amplified current of […], with each micrograph content being produced at 8000× magnification. ImageJ software was used for the measurements of electron micrograph images. The polydispersity index from the TEM micrograph was calculated using eq . 1 PDI=sizedeviation(σ)/sizemean(μ)

S-TEM nanoparticle size = format: physicochemical; conditions: for TEM mean size / TEM PDI: 10 μM solutions of nanoGUMBOS; for TEM PDI: size deviation/size mean
Procedure: as §1, §2

DLS ζ-potential = format: physicochemical; conditions: nanoGUMBOS, triplicate
Procedure: Ultraviolet–visible (UV–vis) absorption was measured between 560 and 562 nm using a Jasco V-750 spectrophotometer for the characterization of GUMBOS and nanoGUMBOS experiments. Fluorescence excitation and emission spectra were recorded using a Jasco FP-8500 fluorescence spectrophotometer. Fourier transform infrared (FT-IR) spectra were collected using a Thermo Scientific Nicolet iS20 instrument with 256 scans and a resolution of 4 cm^–1. A JEOL JSM 7600F scanning electron microscope (SEM) was employed for surface imaging and analysis of samples. A Mettler Toledo pH meter was used for measuring the pH of the various solutions. Ultrafast liquid chromatography (UFLC) coupled with a SHIMADZU electrospray ionization-mass spectrometer (ESI-MS) system was used for the characterization of the synthesized GUMBOS. ^1H and ^13C NMR spectra were collected using a JEOL ECZL-400S NMR spectrometer (400 MHz, CCRL05) equipped with a 24-position autosample changer and autotune probe. Dynamic light scattering (DLS) and ζ-potential measurements were conducted by using a Malvern Zetasizer Nano-Series system. The blood–brain barrier permeability was assessed by using a Bioassay Systems Parallel Artificial Membrane Permeability Assay-BBB Kit. Confocal fluorescence imaging was performed using a Zeiss confocal laser scanning microscope, LSM-710, equipped with an inverted Axio Observer Z1 platform and Airyscan detection. Triple-deionized water was purified by using a Millipore Milli-Q system.
as §2, with “ImageJ software was used for the measurements of electron micrograph images.” left out, “1 PDI=sizedeviation(σ)/sizemean(μ)” left out

[3] = tested on: A549 lung carcinoma cells; assay: Confocal microscopy cell viability (DAPI-stained nuclei), A549; format: cell-based, human; conditions: for average cell viability, A549 / cell viability versus control, statistical significance, A549 / average viability decrease, A549: 10 μM nanoGUMBOS; for average cell viability, A549: no light activation, % of control; for cell viability versus control, statistical significance, A549: unpaired t-test; for nuclear morphology in fluorescence imaging: DAPI staining, in the dark, A549 and HEK293 imaged; for selectivity index (SI): cytotoxicity of A549 cells / cytotoxicity of HEK293 cells
Procedure: (§3) HEK293 or A549 Cells were collected from a T-25 culture flask following a standard cell culture harvesting procedure. A549 cells were diluted in cell culture media to a concentration of roughly 1,35,000 cells/mL. From this, the cells were loaded into individual chambers on an eight-chamber microscope slide, with a cell count per chamber of roughly 60,000 cells. This slide was then placed in an incubator (37 °C and 5.0% CO2 conditions) for 24 h before treating. When the treatment began, the original cell culture media was removed from the cells, and a compound/media mixture was added to each well. A control group of only cell culture media/DMSO was prepared and applied to one chamber in the slide, with the others consisting of treatment groups, following a serial dilution from 10 μM down to 0.15625 μM. After applying the treatment, the plate was returned to the incubator for 24 h. Following the incubation period, the cells were fixed using a 4% formaldehyde solution in the PBS buffer for 15 min at room temperature. After 15 min, the cells were washed three times with PBS. Then, to prepare the cells for staining, 0.5% Triton X-100 in PBS was applied to the cells for 15 min at room temperature. This was followed by three washes with PBS again. A 3% bovine serum albumin in PBS buffer was added to the cells for 60 min to block potential nonspecific binding sites for later 4′,6-diamidino-2-phenylindole (DAPI) staining. Another three washes with PBS were applied to the cells, and the cells were stained with a 1 μg/mL solution of DAPI and a mounting solution.
(§4) The imaging method employed fluorescence microscopy for nuclear staining visualization, allowing for an accurate quantification of viable cells based on intact nuclear morphology. ImageJ software was used to count the cell nuclei in each image. To avoid background signal, the software was set to only include nuclei of 20 μm^2 or larger. Viability quantification was performed by counting intact, properly stained nuclei and expressing results as a percentage of control values, with error bars representing standard error of the mean (SEM) from triplicate experiments. Statistical analysis was performed using unpaired t-tests with significance set at p < 0.05. Each nanoGUMBOS treatment was compared independently to control within the same cell lines, representing planned pairwise comparisons rather than exploratory testing. Given this, each nanoGUMBOS formulation that reduces cell viability will be assessed for an untreated cell line. Comparisons are made within discrete experimental groups for each cell line; thus, the unpaired t-test is employed. Dose–response curves and IC50 values were generated using a four-parameter logistic regression model implemented in Python (v3.12) within Jupyter Notebook (Anaconda distribution). Curve fitting was performed with the SciPy package (version 1.13), and figures were prepared using Matplotlib (v3.9). The rationale for selecting A549 (lung carcinoma) and HEK293 (noncancerous embryonic kidney) cell lines was based on their well-characterized nature and widespread use in cancer research, representing a relevant cancer model and a noncancerous control, respectively. […] Selectivity will be calculated using eq . 5 SI=cytotoxicityofA549cells/cytotoxicityofHEK293cells

[4] = tested on: HEK293 human embryonic kidney cells; assay: Confocal microscopy cell viability (DAPI-stained nuclei), HEK293; format: cell-based; conditions: 10 μM nanoGUMBOS; for cell viability versus control, statistical significance, HEK293: unpaired t-test
Procedure: as §3, §4

N.N.[Cl][Pt][Cl] [cisplatin]
selectivity index (A549 cells): under 2

O=C(O)c1c(Cl)c(Cl)c(Cl)c(Cl)c1-c1c2cc(I)c(=O)c(I)c-2oc2c(I)c(O)c(I)cc12 [[Na]2[RB], Rose Bengal disodium salt, reference compound]
K o/w (octanol–water partition constant) [1]: 4.5 | DLS PDI [2]: 0.58 | DLS mean size [2]: 230.9 nm | DLS mean size ([2]; listed as [Na] 2 [RB]): 230.90 ± 17.89 nm | TEM mean size (S-TEM nanoparticle size): 268.62 ± 74.02 nm | TEM PDI (S-TEM nanoparticle size): 0.28 | ζ-potential (DLS ζ-potential): −18.4 mV | average cell viability, A549 ([3]; 24 h): 86.7% | cell viability versus control, statistical significance, A549 [3]: no statistically significant difference | nuclear morphology in fluorescence imaging ([3]; nanoGUMBOS, 24 h): minimal cellular changes | cell viability versus control, statistical significance, HEK293 [4]: no statistically significant difference

O=C([O-])c1c(Cl)c(Cl)c(Cl)c(Cl)c1-c1c2cc(I)c(=O)c(I)c-2oc2c(I)c([O-])c(I)cc12.c1ccc([P+](c2ccccc2)(c2ccccc2)c2ccccc2)cc1.c1ccc([P+](c2ccccc2)(c2ccccc2)c2ccccc2)cc1 [[TPP]2[RB], tetraphenylphosphonium Rose Bengal]
K o/w (octanol–water partition constant) [1]: 2.8 | DLS PDI [2]: 0.22 | DLS mean size [2]: 40.66 nm | DLS mean size ([2]; listed as [TPP] 2 [RB]): 40.66 ± 3.33 nm | TEM mean size (S-TEM nanoparticle size): 45.33 ± 11.53 nm | TEM PDI (S-TEM nanoparticle size): 0.24 | nanoparticle diameter (method not stated at the place) (S-TEM nanoparticle size; nanoGUMBOS by reprecipitation): below 100 nm | ζ-potential (DLS ζ-potential): approximately −30 mV | average viability decrease, A549 ([3]; 24 h): 57.2% | average cell viability, A549 ([3]; 24 h): below 50% | cell viability versus control, statistical significance, A549 [3]: statistically significant reductions in cell viability; also recorded: statistically significant decrease in cell viability | selectivity index (SI) [3]: 1.5 | nuclear morphology in fluorescence imaging ([3]; nanoGUMBOS, 24 h): altered nuclear morphology consistent with apoptotic processes | cell viability versus control, statistical significance, HEK293 [4]: statistically significant reductions in cell viability; also recorded: statistically significant decrease in cell viability

COc1cccc2c1C(=O)c1c(O)c3c(c(O)c1C2=O)C[C@@](O)(C(=O)CO)C[C@@H]3O[C@H]1C[C@H](N)[C@H](O)[C@H](C)O1 [Doxorubicin]
selectivity index (A549 cells): 1.5

CCCCCCCCCCCCn1cc[n+](C)c1.CCCCCCCCCCCCn1cc[n+](C)c1.O=C([O-])c1c(Cl)c(Cl)c(Cl)c(Cl)c1-c1c2cc(I)c(=O)c(I)c-2oc2c(I)c([O-])c(I)cc12 [[C12MIm]2[RB], 1-dodecyl-3-methylimidazolium Rose Bengal]
K o/w (octanol–water partition constant) [1]: 2.5 | DLS PDI [2]: 0.37 | DLS mean size [2]: 59.87 ± 8.23 nm | TEM mean size (S-TEM nanoparticle size): 70.31 ± 16.43 nm | TEM PDI (S-TEM nanoparticle size): 0.23 | ζ-potential (DLS ζ-potential): ≈ −30 mV | average viability decrease, A549 ([3]; 24 h): 77.4% | cell viability versus control, statistical significance, A549 [3]: statistically significant reductions in cell viability; also recorded: statistically significant decrease in cell viability | selectivity index (SI) [3]: 2.1 | nuclear morphology in fluorescence imaging ([3]; nanoGUMBOS, 24 h): altered nuclear morphology consistent with apoptotic processes | pIC50 ([3]; nanoGUMBOS, 24 h, four-parameter logistic fit, read-out: IC50 against A549 cells): 5.67 and 5.66 | cell viability decrease, HEK293 ([4]; 24 h): 63.1% | cell viability, HEK293 ([4]; 24 h, % of control): 47.1% | cell viability versus control, statistical significance, HEK293 [4]: statistically significant reductions in cell viability; also recorded: statistically significant decrease in cell viability

tetrabutylphosphonium Rose Bengal [[TBP]2[RB]]
cell viability versus control, statistical significance, A549 [3]: no statistically significant difference | nuclear morphology in fluorescence imaging ([3]; nanoGUMBOS, 24 h): minimal cellular changes | cell viability versus control, statistical significance, HEK293 [4]: no statistically significant difference
